Reference: patent publication US9359338B2, “Cyclopropanecarboxamido-substitute aromatic compounds as anti-tumor agents” (Crown Bioscience Inc. (Taiwan), priority 2012, dated 2016)
Like-named read-outs stand apart in the source and are kept apart here.

Experiments:
[1] = system: PLC-PRF-5 cells; assay: Inhibition of proliferation of PLC-PRF-5 cells (ATPlite); type: cell-based; details: Homo sapiens
Outline: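 Antiproliferative IC50 from luminescent ATP detection (ATPlite) after 96 h compound exposure at 37 °C. Cells grown in DMEM plus 10% FBS and allowed 2 h to settle, then dosed with eight 3-fold dilutions topping at 30 μM final, DMSO 0.3%.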

[2] = biological target: KDR kinase (790-1356 AA) (Homo sapiens (Human), UniProt P35968); assay: Inhibitory activity at KDR kinase (Lance Ultra Ulight-TK assay); type: biochemical
Chain of KDR kinase (790-1356 AA) (P35968 790-1356): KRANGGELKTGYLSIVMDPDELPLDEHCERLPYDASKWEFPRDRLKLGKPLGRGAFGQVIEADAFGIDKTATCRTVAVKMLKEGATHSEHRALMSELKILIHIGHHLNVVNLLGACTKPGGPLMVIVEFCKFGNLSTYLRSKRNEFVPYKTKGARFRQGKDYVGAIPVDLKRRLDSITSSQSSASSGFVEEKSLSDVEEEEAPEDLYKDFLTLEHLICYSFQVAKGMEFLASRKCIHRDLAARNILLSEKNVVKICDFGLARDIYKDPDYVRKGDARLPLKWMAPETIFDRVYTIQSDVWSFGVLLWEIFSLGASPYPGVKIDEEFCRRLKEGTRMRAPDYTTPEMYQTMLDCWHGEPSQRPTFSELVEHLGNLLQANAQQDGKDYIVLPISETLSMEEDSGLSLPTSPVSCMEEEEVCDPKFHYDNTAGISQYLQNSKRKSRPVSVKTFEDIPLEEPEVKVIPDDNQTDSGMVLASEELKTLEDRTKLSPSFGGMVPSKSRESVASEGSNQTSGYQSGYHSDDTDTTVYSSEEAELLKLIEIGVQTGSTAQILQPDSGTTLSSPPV
Outline: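 Kinase (20 nM final) and compound were premixed 20 min at 30 °C, then phosphorylation ran 2 h at 30 °C with ATP at 90 μM and Ulight-TK substrate at 50 μM, pH 7.5, Mg2+ and Mn2+ present.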

[3] = system: pERK in MDA-MB-231 cells; assay: Inhibitory activity at pERK (In Cell Western, MDA-MB-231 cells); type: cell-based; details: Homo sapiens
Outline: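 pERK was measured by in-cell immunofluorescence (PI nuclear counterstain, Acumen read-out) in fixed MDA-MB-231 cells. Compound exposure lasted 2 h in DMEM with 0.1% BSA, using eight 3-fold dilutions starting at 30 μM final and 0.3% DMSO. IC50 values were derived from the resulting curves.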

[4] = PLC-PRF-5, PLC-PRF-5 cells, read-out: PLC-PRF-5 cell proliferation IC50
[5] = MDA-MB-231, MDA-MB-231 cells, read-out: MDA-MB-231 pERK IC50

Row | SMILES | IC50 [1, 4] | IC50 [2] | IC50 [3, 5] | IC50 ([1]; PLC-PRF-5, read-out: PLC-PRF-5 cell proliferation IC50) | IC50 ([3]; MDA-MB-231, read-out: MDA-MB-231 pERK IC50)
1 | Cc1cc(Oc2ccnc(NC(=O)C3CC3)c2)ccc1NC(=O)Nc1cc(F)cc(C(C)(F)F)c1 [Exe. 197] | 3290 nM | 5.7 nM | 14.2 nM | – | –
2 | Cc1cc(Oc2ccnc(NC(=O)C3CC3)c2)ccc1NC(=O)Nc1cc(C(C)(F)F)ccc1F [Exe. 198] | 740 nM | 8.3 nM | 5.7 nM | – | –
3 | Cc1cc(Oc2ccnc(NC(=O)C3CC3)c2)ccc1NC(=O)Nc1ccc(F)c(C(C)(F)F)c1 [Exe. 200] | 3180 nM | 10 nM | 5.5 nM | – | –
4 | O=C(Nc1cccc(C(F)(F)F)c1)Nc1cnc(Oc2ccnc(NC(=O)C3CC3)c2)c(F)c1 [Exe. 201] | 239 nM | 11.4 nM | 326 nM | – | –
5 | CC(F)(F)c1ccc(F)c(NC(=O)Nc2cnc(Oc3ccnc(NC(=O)C4CC4)c3)c(F)c2)c1 [Exe. 202] | 66 nM | 12.7 nM | 246 nM | – | –
6 | CN(c1ccnc(NC(=O)C2CC2)c1)c1ccc(NC(=O)Nc2cccc(C(F)(F)F)c2)c(F)c1 [Exe. 203] | 539 nM | 16.2 nM | 61 nM | – | –
7 | O=C(Nc1cccc(C(F)(F)F)c1)Nc1ccc(Nc2ccnc(NC(=O)C3CC3)c2)cc1F [Exe. 204] | 1850 nM | 9.3 nM | 72 nM | – | –
8 | N#Cc1ccc(NC(=O)Nc2ccc(Oc3ccnc(NC(=O)C4CC4)c3)cc2F)cc1C(F)(F)F [Exe. 206] | – | 14.6 nM | – | 1650 nM | 8.2 nM
9 | Cc1ccc(NC(=O)Nc2ccc(Oc3ccnc(NC(=O)C4CC4)c3)cc2F)cc1C(F)(F)F [Exe. 207] | 71 nM | 10.2 nM | 8.3 nM | – | –
10 | O=C(Nc1cncc(C(F)(F)F)c1)Nc1ccc(Oc2ccnc(NC(=O)C3CC3)c2)cc1F [Exe. 213] | 79 nM | 10.7 nM | 7.2 nM | – | –
11 | O=C(Nc1ccc(Oc2ccnc(NC(=O)C3CC3)c2)cc1F)Nc1cc(OC(F)(F)F)ccc1F [Exe. 214] | 180 nM | 9.4 nM | 11.5 nM | – | –
12 | O=C(Nc1ccc(F)c(C2CC2)c1)Nc1ccc(Oc2ccnc(NC(=O)C3CC3)c2)cc1F [Exe. 222] | 490 nM | 8.7 nM | 17.3 nM | – | –
13 | Cc1ccc(Oc2ccnc(NC(=O)C3CC3)c2)cc1NC(=O)Nc1ccc(F)c(C(F)(F)F)c1 [Exe. 223] | 3430 nM | 6.9 nM | 9 nM | – | –
14 | Cc1ccc(Oc2ccnc(NC(=O)C3CC3)c2)cc1NC(=O)Nc1cccc(C(F)(F)F)c1 [Exe. 226] | 3530 nM | 9.1 nM | 11 nM | – | –
15 | Cc1ccc(Oc2ccnc(NC(=O)C3CC3)c2)cc1NC(=O)Nc1ccc(Cl)c(C(C)(F)F)c1 [Exe. 228] | 3330 nM | 14.7 nM | 12 nM | – | –
16 | Cc1ccc(Oc2ccnc(NC(=O)C3CC3)c2)cc1NC(=O)Nc1ccc(F)c(C(C)(F)F)c1 [Exe. 229] | 3170 nM | 13.4 nM | 6.9 nM | – | –
17 | Cc1cc(NC(=O)Nc2cc(F)cc(C(C)(F)F)c2)ccc1Oc1ccnc(NC(=O)C2CC2)c1 [Exe. 233] | 559 nM | 8.1 nM | 18.5 nM | – | –
18 | O=C(Nc1cc(-c2cn[nH]c2)cc(C(F)(F)F)c1)Nc1ccc(Oc2ccnc(NC(=O)C3CC3)c2)c(F)c1 [Exe. 238] | 2220 nM | 15.6 nM | 57.3 nM | – | –
19 | O=C(Nc1cc(NC(=O)[C@@H]2CCCN2)cc(C(F)(F)F)c1)Nc1ccc(Oc2ccnc(NC(=O)C3CC3)c2)c(F)c1 [Exe. 240] | 1040 nM | 19.1 nM | 27.2 nM | – | –
20 | CN1CCC(C(=O)Nc2cc(NC(=O)Nc3ccc(Oc4ccnc(NC(=O)C5CC5)c4)c(F)c3)cc(C(F)(F)F)c2)CC1 [Exe. 242] | 4630 nM | 16.7 nM | 372 nM | – | –
